In patent US20100204115A1, “USE OF ACETYL- (ALA10, 11)-RANTES (1-14) AND/OR CALCITONIN AS ANTI-ANGIOGENIC AGENTS” (priority 2007, published 2010):

Columns and labels:
[1] = system: HIV-1IIIB; assay: HIV-1 antiviral assay in CEM-SS cells (MTS readout); settings: positive controls
[2] = system: hepatitis B virus (HBV) ayw strain; assay: HBV experimental assay system, secreted HBV DNA by TaqMan PCR; type: cell-based; settings: 10 micrograms per ml; HepG2-2.2.15, six days, HBV DNA in supernatant; combination 0.95 mole peptide 1 and 1.05 mole peptide 2
[3] = system: IL-5, spleen cells; assay: Th1/Th2 cytokine profiling assay, IL-5; type: cell-based, Balb/c mice; settings: 10 micrograms per ml; Ovalbumin-restimulated spleen cells, 72 hours
Excerpt: (§1) Th1/Th2 Cytokine Profiling Assay The Balb/c mice (originated in 1923, it is a popular strain and is used in many different research disciplines. […] On day 50, spleens of the mice were harvested (3 weeks after last boost with Ovalbumin). […] This kit can be used to measure Interleukin-2 (IL-2), Interleukin-4 (IL-4), Interleukin-5 (IL-5), Interferon-γ (IFN-γ), and Tumor Necrosis Factor-α (TNF-α) protein levels in a single sample. The kit performance has been optimized for analysis of physiologically relevant concentrations (pg/ml levels) of specific cytokine proteins in tissue culture supernatants and serum samples.

[4] = system: IL-2, spleen cells; assay: Th1/Th2 cytokine profiling assay, IL-2; type: cell-based, Balb/c mice; settings: 10 micrograms per ml; Ovalbumin-restimulated spleen cells, 72 hours
Excerpt: as §1

[5] = system: IL-4, spleen cells; assay: Th1/Th2 cytokine profiling assay, IL-4; type: cell-based, Balb/c mice; settings: 10 micrograms per ml; Ovalbumin-restimulated spleen cells, 72 hours
Excerpt: as §1

[6] = system: Primary Human endothelial cells (HUVEC); assay: Endothelial cell migration assay; type: cell-based; settings: 10 micrograms per ml, 22 hours
[7] = system: TNF-a, spleen cells; assay: Th1/Th2 cytokine profiling assay, TNF-a; type: cell-based, Balb/c mice; settings: 10 micrograms per ml; Ovalbumin-restimulated spleen cells, 72 hours
Excerpt: as §1

[8] = system: IFNγ, spleen cells; assay: Th1/Th2 cytokine profiling assay, IFNγ; type: cell-based, Balb/c mice; settings: 10 micrograms per ml; Ovalbumin-restimulated spleen cells, 72 hours
Excerpt: as §1

[9] = system: RAW 264.7 cells; assay: Phagocytosis assay (Fluorescein-labeled Escherichia coli, flow cytometry); type: cell-based, mouse; settings: 10 micrograms per ml
[10] = system: HUVEC; assay: Endothelial tube formation assay; type: cell-based, human; settings: 10 micrograms per ml, 20 hours, average tubule length, combination peptide 1:peptide 2 0.95 mole:1.05 mole
Description: The endothelial tube formation assay is based on the ability of endothelial cells to form three-dimensional capillary-like tubular structures when cultured on a gel of basement membrane extract. The endothelial tube formation assay represents a powerful model for studying inhibition and induction of angiogenesis. Pre-labeled HUVEC with Calcein AM were seeded in a 96-well culture plate coated with extracellular metrix (Chemicon international Cat. ECM625) and treated with test peptides—10 micrograms per ml—in full growth medium. Positive control was vehicle only. The endothelial cells were allowed to form tubes foe 20 hours and were then examined under an inverted fluorescent microscope. Duplicate wells for each treatment were photographed and quantitatively analyzed for an average tubule length using image analysis software ImageProPlus. Raw data were expressed as average tubule lenghs in pixels ±standard deviation. Statistic p values were computed using the Student's t-test.

[11] = system: A549 cells; assay: Apoptosis prevention assay (C2 ceramide, Annexin-5); type: cell-based, human; settings: 10 micrograms per ml, 30 min pretreatment
[12] = system: HCMV strain AD169; assay: HCMV plaque formation assay in MRC-5 cells; settings: for inhibition of HCMV plaque formation as compared to the virus control experiment: 10 micrograms per ml, 7-10 days

In the case of `Cc1cn([C@H]2C[C@H](N=[N+]=[N-])[C@@H](CO)O2)c(=O)[nH]c1=O` [AZT], the “antiviral activity of positive control compounds” value [1] is reported as “expected levels of antiviral activity”.
For “Ac-Ser-Pro-Tyr-Ser-Ser-Asp-Thr-Thr-Pro-Ala-Ala-Phe-Ala-Tyr-NH2 (Ac-SPYSSDTTPAAFAY-NH2) [peptide 1]”, the “inhibition of HBV replication as compared to the virus control infection” value [2] was 40.7%, the “IL-5 spleen cells; TH2 response (% of control)” value [3] was 70.7 % of control and the “IL-2 spleen cells (% of control)” value [4] was 116.2 % of control. For the same molecule, the “IL-4 spleen cells; TH2 response (% of control)” value [5] was 80.4 % of control, the “induction of the migration of human endothelial cells” value [6] was 11% and the “TNF-a spleen cells; TH1 response (% of control)” value [7] was 107.4 % of control. The “IFNγ spleen cells; TH1 response (% of control)” value [8] was 102.8 % of control, the “increase of the phagocytic activity of murine macrophages” value ([9]; RAW 264.7, Fluorescein-labeled E. coli) was 42.9% and the “inhibition of the tube formation of endothelial cells” value [10] was 26%. For the same molecule, the “increase of the ceramide-induced apoptosis on human lung cells” value [11] was 13.2% and the “inhibition of HCMV plaque formation as compared to the virus control experiment” value [12] was “did not inhibit HCMV plaque formation”.
`CC(C)(C)NC(=O)[C@@H]1CN(Cc2cccnc2)CCN1C[C@@H](O)C[C@@H](Cc1ccccc1)C(=O)N[C@H]1c2ccccc2C[C@H]1O` [indinavir] was tested, and the “antiviral activity of positive control compounds” value [1] was “expected levels of antiviral activity”.
In the case of `Nc1nc(O)c2ncn(COC(CO)CO)c2n1` [Ganciclovir, reference compound], the “antiviral activity of positive control compound” value ([12]; HCMV AD169, positive control) is reported as “expected levels of antiviral activity”.
For “Cys-Gly-Asn-Leu-Ser-Thr-Cys-Met-Leu-Gly-Thr-Tyr-Thr-Gln-Asp-Phe-Asn-Lys-Phe-His-Thr-Phe-Pro-Gln-Thr-Ala-Ile-Gly-Val-Gly-Ala-Pro-NH2 [peptide 2]”, the “inhibition of HBV replication as compared to the virus control infection” value [2] was 31.0%, the “IL-5 spleen cells; TH2 response (% of control)” value [3] was 60.2 % of control and the “IL-2 spleen cells (% of control)” value [4] was 110.1 % of control. For the same molecule, the “IL-4 spleen cells; TH2 response (% of control)” value [5] was 0.0 % of control, the “inhibition of the migration of human endothelial cells” value [6] was 26% and the “TNF-a spleen cells; TH1 response (% of control)” value [7] was 116.4 % of control. The “IFNγ spleen cells; TH1 response (% of control)” value [8] was 63.7 % of control, the “inhibitory or activating effects on the phagocytic activity of murine macrophages” value ([9]; RAW 264.7, combination peptide 1:peptide 2 1.10 mole:0.90 mole) was “no inhibitory or activating effects on the phagocytic activity” and the “inhibition of the tube formation of endothelial cells” value [10] was 18%. For the same molecule, the “reduction of the ceramide-induced apoptosis on human lung cells” value ([11]; combination 0.95 mole peptide 1 and 1.05 mole peptide 2) was 32.7% and the “inhibition of HCMV plaque formation as compared to the virus control experiment” value [12] was “did not inhibit HCMV plaque formation”.
